ChEMBL document CHEMBL1201862, “PubChem BioAssay data set” (2004)
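Values below derive from 48-hour exposures of cells grown in 96-well plates, with endpoints linearly interpolated between the two concentrations bracketing the appropriate inhibition level. At the GI50, growth is halved.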 Activity calls are given as the source filed them. Rule as the data show it: active = GI50 up to about 1.1 µM and inactive = higher.

Tests used:
Test in all cases: NCI anticancer screen, dose series, 48 h
[1] = system: K562
[2] = system: RPMI-8226
[3] = system: M14
[4] = system: SF-295
[5] = system: LOX IMVI
[6] = system: A549
[7] = system: SK-MEL-28
[8] = system: HCC 2998
[9] = system: SNB-75
[10] = system: SK-OV-3
[11] = system: UO-31
[12] = system: RXF 393
[13] = system: NCI-H23
[14] = system: NCI-H460
[15] = system: HOP-92
[16] = system: CAKI-1
[17] = system: DU-145
[18] = system: PC-3
[19] = system: T47D
[20] = system: Hs-578T

SMILES	GI50 [1]	GI50 [2]	GI50 [3]	GI50 [4]	GI50 [5]	GI50 [6]	GI50 [7]	GI50 [8]	GI50 [9]	GI50 [10]	GI50 [11]	GI50 [12]	GI50 [13]	GI50 [14]	GI50 [15]	GI50 [16]	GI50 [17]	GI50 [18]	GI50 [19]	GI50 [20]
COc1cc(/C=C(\C#N)C(=O)c2ccccc2)cc(OC)c1OC	> 100 µM (inactive)	> 100 µM (inactive)	> 100 µM (inactive)	> 100 µM (inactive)	> 100 µM (inactive)	> 100 µM (inactive)	> 100 µM (inactive)	> 100 µM (inactive)	38.1 µM (inactive)	> 100 µM (inactive)	> 100 µM (inactive)	29.6 µM (inactive)	> 100 µM (inactive)	> 100 µM (inactive)	83.4 µM (inactive)	> 100 µM (inactive)				
CCC(=O)N1C(=O)OCC1C(C)C (stereo not drawn)	> 100 µM (inactive)	> 100 µM (inactive)	> 100 µM (inactive)	> 100 µM (inactive)	> 100 µM (inactive)	> 100 µM (inactive)		> 100 µM (inactive)	> 100 µM (inactive)	> 100 µM (inactive)	> 100 µM (inactive)	> 100 µM (inactive)	> 100 µM (inactive)	> 100 µM (inactive)	> 100 µM (inactive)	> 100 µM (inactive)				
CC(C)(C)c1ccc(Oc2ccc(C#N)c(C#N)c2)c(C(C)(C)C)c1	21.2 µM (inactive)	17 µM (inactive)	53 µM (inactive)	> 58.9 µM (inactive)	30.6 µM (inactive)	60.4 µM (inactive)	51.5 µM (inactive)	48.9 µM (inactive)	> 26.3 µM (inactive)	> 100 µM (inactive)	32.7 µM (inactive)	24.3 µM (inactive)	43.6 µM (inactive)	28.8 µM (inactive)	31.8 µM (inactive)	56.4 µM (inactive)				
CC(=O)Oc1ccccc1C(=O)O [ASPIRIN]	> 100 µM (inactive)	> 100 µM (inactive)	> 100 µM (inactive)	> 100 µM (inactive)	> 100 µM (inactive)	> 100 µM (inactive)	> 100 µM (inactive)		> 100 µM (inactive)	> 100 µM (inactive)	> 100 µM (inactive)	> 100 µM (inactive)	> 100 µM (inactive)			> 100 µM (inactive)	> 100 µM (inactive)	> 100 µM (inactive)	> 100 µM (inactive)	
N#CC(/C(=N\NC(N)=S)C(=O)NC1C2CC3CC(C2)CC1C3)c1ccc(Cl)cc1 (stereo not drawn)	> 100 µM (inactive)	> 100 µM (inactive)	> 100 µM (inactive)	> 100 µM (inactive)	> 100 µM (inactive)	> 100 µM (inactive)	> 100 µM (inactive)	> 100 µM (inactive)	> 100 µM (inactive)	> 100 µM (inactive)	> 100 µM (inactive)	> 100 µM (inactive)	> 100 µM (inactive)	> 100 µM (inactive)	> 100 µM (inactive)	> 100 µM (inactive)				
O=C1/C(=C/c2ccc(Cl)cc2)NC(=S)N1CN1CCCCC1	34 µM (inactive)	20 µM (inactive)	35.1 µM (inactive)	36.9 µM (inactive)	37.8 µM (inactive)	34.1 µM (inactive)	61.2 µM (inactive)		36.3 µM (inactive)	63.4 µM (inactive)	28.1 µM (inactive)		37.2 µM (inactive)		50.5 µM (inactive)		45.8 µM (inactive)	48.4 µM (inactive)		21.5 µM (inactive)
N#CC1(C#N)C(c2ccccc2)C=CC12OCCCO2 (stereo not drawn)	30.6 µM (inactive)	27.7 µM (inactive)	29.7 µM (inactive)	76 µM (inactive)	40.4 µM (inactive)	88.9 µM (inactive)	27 µM (inactive)	84.9 µM (inactive)	42.9 µM (inactive)	> 100 µM (inactive)	97.3 µM (inactive)	17 µM (inactive)	31.2 µM (inactive)	42 µM (inactive)	30.5 µM (inactive)	24.5 µM (inactive)				
CC(C)(C)OC(=O)NCCCCCCC(=O)Cc1ccccc1	> 100 µM (inactive)	> 100 µM (inactive)	> 100 µM (inactive)	> 100 µM (inactive)	> 100 µM (inactive)	> 100 µM (inactive)	> 100 µM (inactive)	> 100 µM (inactive)	> 100 µM (inactive)	> 100 µM (inactive)	> 100 µM (inactive)	> 100 µM (inactive)	> 100 µM (inactive)	> 100 µM (inactive)	> 100 µM (inactive)	> 100 µM (inactive)	> 100 µM (inactive)	> 100 µM (inactive)	> 100 µM (inactive)	
CCCCC(C(=O)CCC(=O)Nc1ccc(Cl)cc1)C(=O)C(C)C (stereo not drawn)	25.1 µM (inactive)	> 100 µM (inactive)	> 100 µM (inactive)	> 100 µM (inactive)	30.5 µM (inactive)	> 100 µM (inactive)	> 100 µM (inactive)	> 100 µM (inactive)	> 100 µM (inactive)	> 100 µM (inactive)	> 100 µM (inactive)	> 100 µM (inactive)	> 100 µM (inactive)	> 100 µM (inactive)	> 100 µM (inactive)	> 100 µM (inactive)				
COc1ccc(/N=C(/C[S+]([O-])c2ccc(C)cc2)C(F)(F)F)cc1 (stereo not drawn)	59.7 µM (inactive)		> 100 µM (inactive)	56.2 µM (inactive)	> 100 µM (inactive)	78 µM (inactive)	> 100 µM (inactive)	41 µM (inactive)	> 100 µM (inactive)	> 100 µM (inactive)	9.57 µM (inactive)	> 100 µM (inactive)	> 100 µM (inactive)	> 100 µM (inactive)	> 100 µM (inactive)	> 100 µM (inactive)	> 100 µM (inactive)	26.5 µM (inactive)	> 100 µM (inactive)	
COC1=CC(C)C2C[C@H]3O[C@H](O)C[C@H]4C(C)C(=O)C(O)C([C@@]2(C)C1=O)[C@@]34C (stereo partly drawn)	> 100 µM (inactive)	> 100 µM (inactive)	> 100 µM (inactive)	> 100 µM (inactive)	> 100 µM (inactive)	> 100 µM (inactive)	> 100 µM (inactive)	> 100 µM (inactive)	> 100 µM (inactive)	> 100 µM (inactive)	> 100 µM (inactive)	> 100 µM (inactive)	> 100 µM (inactive)	> 100 µM (inactive)	> 100 µM (inactive)	> 100 µM (inactive)				
O=C1NC(Cc2ccccc2)C(=O)N2CCCC12 (stereo not drawn)	> 100 µM (inactive)	> 100 µM (inactive)	> 100 µM (inactive)	> 100 µM (inactive)	> 100 µM (inactive)	> 100 µM (inactive)	> 100 µM (inactive)	> 100 µM (inactive)	> 100 µM (inactive)	> 100 µM (inactive)	> 100 µM (inactive)	> 100 µM (inactive)		> 100 µM (inactive)	> 100 µM (inactive)	> 100 µM (inactive)				
Cn1c(CCC#N)nc2ccc(Br)cc2c1=O	> 100 µM (inactive)	> 100 µM (inactive)	> 100 µM (inactive)	> 100 µM (inactive)	> 100 µM (inactive)	> 100 µM (inactive)	> 100 µM (inactive)	> 100 µM (inactive)	> 100 µM (inactive)	> 100 µM (inactive)	> 100 µM (inactive)	> 100 µM (inactive)	41.7 µM (inactive)	> 100 µM (inactive)	> 100 µM (inactive)	> 100 µM (inactive)				
COc1ccc(N2/C(=N/c3ccccc3)SC(=N/S(=O)(=O)c3ccccc3)/C2=N\S(=O)(=O)c2ccccc2)cc1	16.9 µM (inactive)	20.7 µM (inactive)	33.7 µM (inactive)			18.5 µM (inactive)	14.5 µM (inactive)	17.3 µM (inactive)	19.4 µM (inactive)		19.2 µM (inactive)	12.8 µM (inactive)	12.9 µM (inactive)	11.3 µM (inactive)	16.4 µM (inactive)			16.7 µM (inactive)	0.298 µM (active)	18.6 µM (inactive)
CCOC(=O)/C(=C\NC(C)(C)C)c1nc2ccccc2[nH]1		17.2 µM (inactive)	20.1 µM (inactive)	20.2 µM (inactive)	21.9 µM (inactive)	29.4 µM (inactive)	16.4 µM (inactive)		23.7 µM (inactive)	30.1 µM (inactive)	0.466 µM (active)	23.5 µM (inactive)	17.7 µM (inactive)	17.7 µM (inactive)	25.2 µM (inactive)	29.2 µM (inactive)	29.9 µM (inactive)			19.6 µM (inactive)
Cc1cc(O)c2c(c1)C(O)(c1ccc3c(c1O)C(=O)c1c(O)cc(C)cc1C3(O)C1OC(CO)C(O)C(O)C1O)c1cccc(O)c1C2=O (stereo not drawn)	5.15 µM (inactive)	16 µM (inactive)	14.4 µM (inactive)	11.6 µM (inactive)	11.4 µM (inactive)	18.3 µM (inactive)	15 µM (inactive)	16 µM (inactive)	14.1 µM (inactive)	17.6 µM (inactive)	17.7 µM (inactive)	12.1 µM (inactive)	15.2 µM (inactive)	14 µM (inactive)	6.19 µM (inactive)	17.7 µM (inactive)				
N#CC(C#N)=C1NN=C(Cl)c2ccccc21	> 100 µM (inactive)	57.3 µM (inactive)	> 100 µM (inactive)	> 100 µM (inactive)	> 100 µM (inactive)	> 100 µM (inactive)	61.8 µM (inactive)	> 100 µM (inactive)	33.9 µM (inactive)	> 100 µM (inactive)	50.7 µM (inactive)	> 100 µM (inactive)	59.4 µM (inactive)	> 100 µM (inactive)	47.2 µM (inactive)	> 100 µM (inactive)				
